{"source": "a melting point compilation (Tetko et al.; mined from patent text by program, amines drawn as free bases though some values may be those of a salt)"}
{"units": {"melting point": "°C"}}
{"smiles": "CC[C@@H]1O[C@](C#Cc2ccoc2)(C(F)(F)F)c2cc(Cl)ccc2NC1=O", "note": "(relative stereo)", "melting point": "169 to 170"}
{"smiles": "COc1ccc(S(=O)(=O)Nc2cccc(C)c2NC(=O)c2ccccn2)cc1", "melting point": "180 to 182"}
{"smiles": "O=C1CC(c2cccc(-n3cncn3)c2)=Nc2ccc(C#Cc3ccc(F)cc3)cc2N1", "melting point": "217 to 218"}
{"smiles": "c1ccc(CCc2[nH]ncc2-c2ccncc2)cc1", "melting point": "125 to 131"}
{"smiles": "COc1cc2c(cc1-c1c(C)nn(C)c1C)-c1c(-c3cccs3)c3c(n1CC2)C(=O)N(C(C)C)CCN(C(C)=O)C3", "melting point": "178 to 180"}
{"smiles": "Brc1ccc(-c2cnc(COCc3cc4ccccc4o3)o2)cc1", "melting point": "80 to 82"}
{"smiles": "C[C@@H](n1cnc2cc(S(=O)(=O)c3ccccc3)ccc2c1=O)[C@](O)(Cn1cncn1)c1ccc(F)cc1F", "melting point": "125 to 130"}
{"smiles": "COc1nc(C)nc(NC(=O)NS(=O)(=O)c2ccccc2C(=O)OC(C)C)n1", "melting point": "193 to 196"}
{"smiles": "COc1ccc2c(c1)sc1ncc(CO)n12", "melting point": "202 to 204"}
{"smiles": "CC(C)Sc1cc(O)c(N)c(C#N)c1", "melting point": "145 to 146"}
{"smiles": "C=CCOC(=O)c1ccc(N)cc1O", "melting point": "58 to 59"}
{"smiles": "CC(=O)OCCn1cc(C(N)=O)c([N+](=O)[O-])n1", "melting point": "139 to 141"}
{"smiles": "Oc1ccc(C(c2ccc(O)cc2)n2cncn2)cc1", "melting point": 230}
{"smiles": "O=[N+]([O-])c1ccc(OCc2ccc(C(F)(F)F)cc2)cc1", "melting point": "80.5 to 81.5"}
{"smiles": "COc1cc2nc(SCc3nccc(N(C)C)c3F)[nH]c2cc1OC", "melting point": "142 to 144"}
{"smiles": "COC(=O)c1cc(I)cn1C", "melting point": "64 to 65"}
{"smiles": "O=C(O)c1c(Cl)ccc([N+](=O)[O-])c1Cl", "melting point": "133 to 135"}
{"smiles": "ClCc1c(Cl)c(Cl)c(Cl)c(CCl)c1Cl", "melting point": "135 to 138"}
{"smiles": "CC(C(=O)O)c1cccc2c1Oc1ccccc1CC2=O", "note": "(centres undefined)", "melting point": "159 to 160"}
{"smiles": "CCCN(CCN)CCNC(=O)c1nc(Cl)c(N)nc1N", "melting point": "91 to 94"}
{"smiles": "COC(=O)N=C1SCC(=O)N1c1c(-c2ccccc2)csc1NC(=O)CN(C)C", "melting point": "124 to 126"}
{"smiles": "CCOC(=O)c1nc2cc(Br)c(Cl)cc2[nH]c1=O", "melting point": "203 to 205"}
{"smiles": "CCCCSCC(=O)c1cc2[nH]c(=O)[nH]c2cc1Cl", "melting point": "199 to 201"}
{"smiles": "CC(C)(C)OC(=O)N[C@@H](Cc1ccccc1)C(=O)N1CCN(C(c2ccc(F)cc2)c2ccc(F)cc2)CC1", "melting point": "54 to 74"}
{"smiles": "CC(C)(CCC#N)c1ccc(C(=O)Nc2cn3cc(C(F)(F)F)ccc3n2)cc1", "melting point": "233 to 234"}
{"smiles": "O=C(CC(=O)N1CCOCC1)c1ccc2ccccc2c1O", "melting point": "128 to 130"}
{"smiles": "Cc1oc(-c2ccccc2)nc1CCC(=O)c1ccc(C=C2SC(=O)NC2=O)cc1", "melting point": "224 to 225"}
{"smiles": "COc1cccc2c(O)c(C(=O)NCC(=O)O)ncc12", "melting point": 168}
{"smiles": "COc1ccc2c(c1)CN(C(C)=O)N=C2Cc1c(Cl)cncc1Cl", "melting point": "186 to 188"}
{"smiles": "Cn1c2c(c3c(Cl)cccc31)CCOC2(C)CC(=O)O", "note": "(centres undefined)", "melting point": "105 to 110"}
{"smiles": "CCN1c2ncc(CCc3ccccc3)cc2C(=O)Nc2c(C)ccnc21", "melting point": "174 to 175"}
{"smiles": "Nc1cc(F)ccc1C(=O)NCc1ccc(Br)cc1F", "melting point": "120 to 121"}
{"smiles": "Cc1nc(N)c2nc(C)n(CCCCNS(C)(=O)=O)c2c1C", "melting point": "228 to 230"}
{"smiles": "CCOC(=O)c1cn(Cc2ccc(Oc3ccccc3)cc2)nc1O", "melting point": "117 to 118"}
{"smiles": "COc1ccc2c(c1)C(c1ccc(Cl)cc1)=C1CCC(=S)NC12", "note": "(centres undefined)", "melting point": "202 to 203"}
{"smiles": "Nc1ccc2ccc(Oc3ccccc3F)nc2n1", "melting point": 206}
{"smiles": "O=C(O)/C=C/c1ccc(-c2ccc(O)c(C34CC5CC(CC(C5)C3)C4)c2)c(Cl)c1", "melting point": "257 to 259"}
{"smiles": "CCCCN1C(=O)CSC(=NO)C1C", "note": "(centres undefined)", "melting point": "118 to 120"}
{"smiles": "O=C(O)c1cn(C2CC2)c2c(F)c(N3CC4CCC3CN4)c(F)cc2c1=O", "note": "(centres undefined)", "melting point": "275 to 280"}
{"smiles": "COc1cc(C=C2C(=O)CCc3cc(Cl)ccc32)c([N+](=O)[O-])cc1OC", "melting point": "56 to 58"}
{"smiles": "Nc1nc(Cl)cnc1-c1cccc(Cl)c1Cl", "melting point": "179 to 181"}
{"smiles": "Cc1nc(N2C[C@@H](C)N(Cc3cc(F)cc(F)c3)C2=O)sc1C(=O)NCc1ccccn1", "melting point": "147 to 148"}
{"smiles": "COc1cc(Nc2c(C#N)cnc3cc(-c4csc(C=O)c4)sc23)c(Cl)cc1Cl", "melting point": "259 to 261"}
{"smiles": "COC(=O)[C@H]1Cc2ccc(C)cc2C(=O)[C@H](C)S1", "note": "(relative stereo)", "melting point": "99 to 100"}
{"smiles": "C(=C\\c1c[nH]c2ccccc12)/c1cc(/C=C/c2ccccc2OCc2ccccn2)[nH]n1", "melting point": "114 to 125"}
{"smiles": "CN1CCC(Nc2ncc3ncnc(Nc4ccc(Oc5ccccc5)cc4)c3n2)CC1", "melting point": 157}
{"smiles": "OC1(c2cccn2Cc2ccccc2F)CCN(CCc2ccc(Cl)cc2)CC1", "melting point": "108 to 109"}
{"smiles": "CC(C)C#CC1(C(F)(F)F)OCC(=O)Nc2ccc(F)c(F)c21", "note": "(centres undefined)", "melting point": "192 to 194"}
{"smiles": "CC(C)(C)NS(=O)(=O)c1ccc2c(NS(=O)(=O)N3CCOCC3)cccc2c1O", "melting point": "105 to 110"}
{"smiles": "Cc1cc(C(=O)NC(C#N)c2ccccc2)n(C)n1", "note": "(centres undefined)", "melting point": "135 to 136"}
{"smiles": "CC(C)(N)C1CN([C@@H]2Cc3ccccc3[C@H]2Oc2ccc(C#N)cc2Cl)C1", "melting point": 93}
{"smiles": "O=S(=O)(c1ccccc1)n1ccc2c(Cl)nc(-c3ccccc3)nc21", "melting point": "259 to 260"}
{"smiles": "COC(=O)c1cccc(C=Cc2nc3cc(F)ccc3s2)c1", "melting point": "172 to 173"}
{"smiles": "COCC1CN(c2ccc3cc(OCCS(C)(=O)=O)ccc3c2)C(=O)O1", "note": "(centres undefined)", "melting point": "128 to 129"}
{"smiles": "CCOC(=O)CNc1ncccc1NC(=O)c1ccccc1Cl", "melting point": "111 to 112"}
{"smiles": "COC(=O)C1=Cc2cc(-c3ccc(N4CCOCC4)cc3)ccc2N(C(=O)OC)CC1", "melting point": "216 to 220"}
{"smiles": "COc1cc(C(=O)c2ccc(C(F)(F)F)cc2)cc([N+](=O)[O-])c1O", "melting point": 172}
{"smiles": "COc1ccc(-c2[nH]nc3c2C(=O)c2c(NC(=O)Nc4ccccc4)cccc2-3)cc1", "melting point": "> 300"}
{"smiles": "CC(C)(C)OC(=O)Nc1cccc(-c2nc(=O)o[nH]2)c1", "melting point": 193}
{"smiles": "NNC(=O)Cc1cccc(Cl)n1", "melting point": "220 to 225"}
{"smiles": "COc1cc2cc3c(Nc4ccc(F)c(Cl)c4)c(C#N)cnc3cc2cc1OCCN1CCOCC1", "melting point": "237 to 242"}
{"smiles": "CC12CC(=O)NN=C1c1ccc(N)cc1C2", "note": "(centres undefined)", "melting point": 222}
{"smiles": "Cc1ccc(S(=O)(=O)C(CCCCCOc2ccc(Cl)cc2)C(=O)O)cc1", "note": "(centres undefined)", "melting point": "88 to 90"}
{"smiles": "COc1ccc(CCNC(=O)C(=O)NCc2cccnc2)cc1OC1CCCC1", "melting point": "148 to 149"}
{"smiles": "CN(C)CC1Cc2c(n(C)c3ccc(O)cc23)C1", "note": "(centres undefined)", "melting point": 110}
{"smiles": "CCCCCCC(O)CCCCCCCCCCC(=O)NCC(O)CNCCO", "note": "(centres undefined)", "melting point": "97.7 to 99.6"}
{"smiles": "Oc1ccccc1Cc1ccc2ccccc2c1O", "melting point": "124 to 125"}
{"smiles": "CCCOc1c(C2CCN(CCCCNC(=O)c3ccc(-c4ccc(C(F)(F)F)cc4)cc3)CC2)ccc2ccccc12", "melting point": "191 to 192"}
{"smiles": "Cc1ccc2c(c1)[C@H]1Cc3ccccc3[C@H]1N2", "note": "(relative stereo)", "melting point": 110}
{"smiles": "COc1ccc(-n2cc(/C=C(\\C#N)C(=O)NS(C)(=O)=O)c(-c3ccc(Cl)c(F)c3)n2)cc1Cl", "melting point": "280 to 282"}
{"smiles": "CC(C=CC(=O)NCCCN1CCCCC1)=CCc1ccc(Cl)c(Cl)c1", "melting point": "50 to 60"}
{"smiles": "COC(=O)c1ccc(C(O)(c2ccc3[nH]c(=O)cc(-c4cccc(Cl)c4)c3c2)c2cncn2C)cc1", "note": "(centres undefined)", "melting point": 255}
{"smiles": "COC(=O)c1cc(-c2ccc(OC)c(OC)c2)nn(CC2CC2)c1=O", "melting point": "136 to 137"}
{"smiles": "O=C1NCCN1Cc1ccc(Cl)cc1", "melting point": "164 to 166"}
{"smiles": "Cn1cnc2c([N+](=O)[O-])cc(Br)cc21", "melting point": 198}
{"smiles": "CC(NC(=O)C(O)c1cc(F)cc(F)c1)C(=O)NC1N=C(c2ccccc2)c2ccccc2N(C)C1=O", "note": "(centres undefined)", "melting point": 128}
{"smiles": "CCNC(=O)n1nc(Oc2c(Cl)cc(C(F)(F)F)cc2Cl)cc1COC", "melting point": "106 to 108"}
{"smiles": "C[C@H]1N(C(=O)c2ccc(C(F)(F)F)cc2F)CC(=O)O[C@@]1(Cn1cncn1)c1ccc(F)cc1F", "note": "(relative stereo)", "melting point": "191 to 192"}
{"smiles": "COC(=O)C1=C(C)NC(C)=C(C(=O)OC)C1c1ccc(OC)c(OC)c1", "melting point": "154 to 155"}
{"smiles": "CCOC(=O)CNC(=O)/C=C/S(=O)(=O)c1ccccc1", "melting point": "156 to 157"}
{"smiles": "O=C(C=Cc1ccc(C(F)(F)F)cc1)N1CCc2c([nH]c3ccccc23)C1c1ccccc1", "note": "(centres undefined)", "melting point": 211}
{"smiles": "CCc1cc(Cl)cc(S(N)(=O)=O)c1N", "melting point": "134 to 135"}
{"smiles": "CCCN(CCC)c1ccc2c(c1)O/C(=C1/Oc3cc(N(CCC)CCC)ccc3C1=O)C2=O", "melting point": 283}
{"smiles": "Cc1ccccc1NC(=O)CN1C[C@@H](C)N(S(=O)(=O)c2cccc(C#N)c2)[C@@H](C)C1", "melting point": "152 to 153"}
{"smiles": "CCc1nc(N)nc(N)c1CCCc1cc(Cl)c(Cl)cc1Cl", "melting point": "168 to 182"}
{"smiles": "CCOC(=O)C(C)(C)c1ccc(Br)c([N+](=O)[O-])c1", "melting point": "42 to 45"}
{"smiles": "CCOC(=O)c1cn(-c2nc(N)c(F)cc2F)c2c(F)c(F)c(F)c(NCc3ccccc3)c2c1=O", "melting point": "176 to 180"}
{"smiles": "O=C(CNC(=O)c1n[nH]cc1NC(=O)c1ccccn1)c1ccccc1", "melting point": "270 to 271"}
{"smiles": "COC(=O)c1cc(CC(C)NCC(O)c2ccc(O)c(CO)c2)ccc1O", "note": "(centres undefined)", "melting point": "65 to 69"}
{"smiles": "Cn1cnc(COc2nn3c(-c4ccccc4)nnc3cc2-c2ccco2)n1", "melting point": "257 to 259"}
{"smiles": "C[C@H](NC(=O)COCCNC(=O)C12CC3CC(CC(C3)C1)C2)C(=O)N[C@H](CCC(=O)O)C(N)=O", "melting point": "84 to 86"}
{"smiles": "CC(C)=CCN1CC(NC(=O)Nc2cccc(C(=O)O)c2)C(=O)N(CC(=O)c2ccccc2C)c2cc(C)ccc21", "note": "(centres undefined)", "melting point": "129 to 131"}
{"smiles": "CC(C)=CC(=O)c1sccc1O", "melting point": "32 to 33"}
{"smiles": "COc1ccc(N2CCN(c3c(C)c(C)c4c(c3C)C(O)(c3ccc(OC)cc3)C(C)(C)O4)CC2)cc1", "note": "(centres undefined)", "melting point": "157 to 159"}
{"smiles": "Cc1nccn1-c1ccc(COc2cc(F)cc(C3(C(N)=S)CCOCC3)c2)cc1", "melting point": "167 to 170"}
{"smiles": "COc1ccc(Nc2cc(-c3ccncc3)nc3ccccc23)cc1Cl", "melting point": "280 to 282"}
{"smiles": "CC(=O)c1ccc2c(c1)C(=O)C1(CC1)S2", "melting point": "128 to 129"}
{"smiles": "CCCC(=O)NC[C@@H]1C[C@H]1c1cccn2nc(C)cc12", "note": "(relative stereo)", "melting point": "82 to 84"}
{"smiles": "O=C(OCc1ccccc1)c1cc(OCc2ccccc2)c(OCc2ccccc2)cn1", "melting point": 117}
